The results in this text go back to US20240277861A1, “ANTI-HEPATITIS B VIRUS AGENT TARGETING HOST FACTOR LIPG” (PUROTECH BIO, INC., priority 2021, published 2024).

Residues, ends and D or L forms follow the SMILES beside them.

Data set [1] is classed as physicochemical. From the text: Therefore, peptides designed by reducing the number of amino acid residues in these two peptides to 8 (LIPH4-23s and LIPH4-NTNBs) were next chemically synthesized.
In data set [2] the test system is HBV. The data set can be described thus: Anti-HBV activities of LIPG-binding peptides in HepG2-NTCP-C4 cells (plasmid transfection). The class given is cell-based. Here is the method: (§1) SMI TEST™ M EX-R&D (Medical & Biological Laboratories) was used to extract DNA from the samples. The extracted DNA was used as a template for quantitative PCR of HBV-DNA. For cccDNA detection, the extracted DNA was treated with T5 exonuclease (New England Biolabs), and the resulting DNA was used as a template for quantitative PCR. The T5 exonuclease treatment was performed at 37° C. for 30 minutes, and the DNase was later inactivated by heating at 80° C. for 15 minutes. The following primer set was used for detection.
Cells were infected with HBV derived from HepG2.2.15 at 20,000 genome equivalents/cell, and plasmids carrying different peptides were transfected individually into the cells 12 to 15 days post infection using Lipofectamine 3000. Samples were collected 3 to 5 days after transfection for evaluation of HBV-DNA, cccDNA, pgRNA, and the like.
For the clones positive in the pull-down experiment against full-length LIPG, the anti-HBV activities of the LIPG peptides were evaluated in HepG2-NTCP-C4 cells (FIG. 17). A secretion signal is added to a plasmid carrying each peptide. Therefore, the peptides are expected to be secreted from cells transfected with the plasmids and to bind to LIPG in the extracellular environment. […] Moreover, the copy number of cccDNA was reduced by almost all the clones.

The test system of data set [3] is HBV. Put plainly: Anti-HBV activities of LIPG-binding peptides in PXB cells. The class given is cell-based. The settings on record: HBV-infected PXB cells. Here is the method:
An infection source medium was prepared by adding the HBV-infected chimeric mouse serum (PhoenixBio), DMSO, and a PEG 8000 solution to the PXB cell culture medium (PhoenixBio) at final concentrations of 5 genome equivalents/cell, 2%, and 4%, respectively. Various synthesized peptides were diluted to different concentrations in this medium, and the resulting media were added individually to PXB cells (PhoenixBio). After the cells were left to stand in a 5% CO2 incubator at 37° C. for 20 to 28 hours, the medium was removed and the wells were washed once with PBS(−). DMSO and one of the various synthesized peptides were added to the PXB cell culture medium at a final concentration of 2% and different concentrations, respectively, and the resulting media were added individually to the PXB cells to perform medium exchange. This medium exchange was performed at 1, 5, and 9 days post infection and samples were collected at 14 days post infection.
as §1
PXB cells, fresh human liver cells isolated from PXB mice (human hepatocyte chimeric mice), are human liver cells that maintain human liver functions at high levels and allow persistent infection with hepatitis B virus (HBV). Therefore, PXB cells were used to evaluate the anti-HBV activities of LIPG-binding peptides. LIPG-binding peptides were chemically synthesized because they were added extracellularly (Eurofins Genomics K.K.). Clones that had shown excellent results in the studies of Examples 10 and 1 (KIgk-LIPH4-23, KIgk-LIPH4-74, KIgk-LIPH4-15, KIgk-L1l 14-2. KIgk-LIPH14-14. KIgk-LIPH4-87) were selected for chemical synthesis of the peptides. […] Therefore, LIPH4-NTNA and LIPH4-NTNB, which share a common sequence with netrins and consist of 16 amino acids, were also chemically synthesized. The chemically synthesized peptides were dissolved in DMSO for use in HBV assays in PXB cells.
Next, the anti-HBV activity of full-length Netrin-1 was examined in PXB cells. A full-length human recombinant Netrin-1 protein consisting of 604 amino acid residues (molecular weight: 67.5 kDa, SEQ ID NO: 28) was purchased from R&D Systems. United States. A shRNA with the sequence […]ctcgagc[…] TTTTTTG (single underline: terminal sequences for cloning, lowercase letters: hairpin loop sequence) (SEQ ID NO: 64) was used to knock down the Netrin-1 gene.

Data set [4] addresses T1, full-length form of LIPG (500 amino acids) (Homo sapiens, UniProt Q9Y5X9).
T1 construct: A pull-down assay was performed on the full-length form of LIPG (500 amino acids); made in house
T1 sequence (Q9Y5X9 21-500): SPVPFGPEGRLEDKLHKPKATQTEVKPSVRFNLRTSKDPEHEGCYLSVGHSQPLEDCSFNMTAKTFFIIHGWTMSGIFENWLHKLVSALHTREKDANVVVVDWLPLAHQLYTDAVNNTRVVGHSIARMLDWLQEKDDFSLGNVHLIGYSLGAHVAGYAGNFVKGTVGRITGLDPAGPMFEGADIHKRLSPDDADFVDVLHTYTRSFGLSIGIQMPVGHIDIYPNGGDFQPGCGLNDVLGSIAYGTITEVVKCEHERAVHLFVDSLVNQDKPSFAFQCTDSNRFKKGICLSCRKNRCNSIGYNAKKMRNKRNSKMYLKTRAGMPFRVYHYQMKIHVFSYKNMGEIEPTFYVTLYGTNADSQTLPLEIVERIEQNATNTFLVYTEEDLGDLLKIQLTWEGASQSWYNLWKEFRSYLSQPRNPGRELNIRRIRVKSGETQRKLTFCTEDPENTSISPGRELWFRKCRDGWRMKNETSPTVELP
Put plainly: Pull-down assay of LIPH4 peptides against full-length LIPG. The class given is binding. The settings on record: culture supernatant of transfected 293T cells, compared with no bait. Here is the method: Human embryonic kidney 293T cells were cultured in DMEM (1.0 g/l glucose) with L-Gln and Sodium Pyruvate, liquid (Nacalai) supplemented with 10% FCS ([…]). Plating was performed in a 1:2 ratio on 6 cm dishes 24 hours before transfection. Lipofectamine 2000 in a volume of 20 μl was added to 500 μl of Opti-MEM 1 and allowed to stand for 5 minutes at room temperature, and the resulting mixture was gently added to a 6 cm dish containing a mixture of 500 μl of Opti-MEM 1 and 8 μg of a plasmid DNA. The resulting mixture was allowed to stand for 20 minutes at room temperature, and then added to a 6 cm dish containing 293T cells, and the cells were cultured at 37° C. in 5% CO2 for 4 to 6 day.
Resin (Streptavidin MagneSphere Paramagnetic Particles) (Promega) was washed using the MagneSphere Technology Magnetic Separation Stand (tweleve-position). The resin in a volume of 40 μl was added to each 1.5 ml tube, and after removal of the solution, washed three times with 1 ml of PBS. The resin was transferred to new tubes and mixed with 0.5 nmol (109 μl) of LIPG-BioFLAGHis or with 109 μl of PBS as a no bait control, and the resulting mixtures were agitated at 4° C. for 1 hour by rotation on a mini-disk rotor (BIO CRAFT) to allow binding. After removal of the solution, the resin was washed three times with 1 ml of TBST (containing 0.05% Tween 20). The resin was transferred to new tubes, blocked with 1 ml of ELISA BSA buffer (TBS, 0.05%, Tween 20, 1% BSA. Nacalai Tesque, Inc.) at 4° C. for 1 hour, and then washed three times with 1 ml of ELISA BSA buffer. The resin was transferred to new tubes, and 1000 μl of the culture supernatant containing expressed KIgk-LIPH4 was mixed with […] of the resin treated with LIPG-BioFLAGHis or without the bait, and the resulting mixtures were agitated at 4° C. for 1 hour and 30 minutes by rotation on a mini-disk rotor (BIO CRAFT) to allow binding. After removal of the solution, the resin was washed three times with […] of TBST (Tween 20, 0.1%), and the recovered resin was used for Western blotting.
Each resin was mixed with water and LDS sample buffer (4×), 0.2 mM DTT, heated at 70° C. for 10 minutes, and then subjected to SDS-PAGE. SDS-PAGE was performed using 4-12% Bis-Tris gel and NuPAGE MES-SDS electrophoresis buffer (Invitrogen) at 200 V and 400 mA for 35 minutes. After electrophoresis, transfer was performed using Mini Format, 0.2-μm PVDF, Single-application (BIO-RAD) Trans-Blot Turbo. The membrane was blocked with a Blocking One Buffer: TBST (1:9) solution and reacted with an anti-Flag-HRP (Sigma: A8592) diluted 2:3000 in a Blocking One Buffer: TBST (1:9) solution. Detection was performed using ECL (Enhanced ChemiLuminescence) on a ChemiDoc (BIO-RAD).
A pull-down assay was performed on the full-length form of LIPG (500 amino acids) with LIPH4 peptides (FIG. 16).

For data set [5], the target named is T2, N4BP1 (NEDD4 Binding Protein 1).
T2 chain: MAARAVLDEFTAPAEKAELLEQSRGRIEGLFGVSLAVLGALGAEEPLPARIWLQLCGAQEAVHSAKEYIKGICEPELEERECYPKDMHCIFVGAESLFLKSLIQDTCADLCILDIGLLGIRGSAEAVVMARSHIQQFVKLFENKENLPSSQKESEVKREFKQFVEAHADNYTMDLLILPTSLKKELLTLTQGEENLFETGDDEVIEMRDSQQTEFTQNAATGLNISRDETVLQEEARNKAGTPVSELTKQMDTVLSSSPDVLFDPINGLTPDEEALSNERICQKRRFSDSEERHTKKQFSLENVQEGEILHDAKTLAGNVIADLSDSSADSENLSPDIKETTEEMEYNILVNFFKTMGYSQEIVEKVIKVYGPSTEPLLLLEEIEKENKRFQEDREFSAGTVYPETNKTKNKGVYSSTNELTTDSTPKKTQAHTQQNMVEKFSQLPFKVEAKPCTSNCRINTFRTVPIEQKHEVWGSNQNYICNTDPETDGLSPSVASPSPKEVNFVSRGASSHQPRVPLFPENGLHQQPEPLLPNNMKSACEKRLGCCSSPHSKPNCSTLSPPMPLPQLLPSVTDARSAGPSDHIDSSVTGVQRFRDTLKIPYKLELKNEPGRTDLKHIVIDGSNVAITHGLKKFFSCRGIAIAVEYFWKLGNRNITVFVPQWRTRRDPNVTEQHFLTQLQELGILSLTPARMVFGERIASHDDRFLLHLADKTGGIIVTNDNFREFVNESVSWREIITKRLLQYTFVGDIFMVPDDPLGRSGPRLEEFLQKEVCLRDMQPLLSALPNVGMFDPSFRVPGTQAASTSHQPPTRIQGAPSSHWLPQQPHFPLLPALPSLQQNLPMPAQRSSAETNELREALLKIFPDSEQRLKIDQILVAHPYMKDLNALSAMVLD

As to `CC(C)C[C@H](N)C(=O)N[C@@H](CC(N)=O)C(=O)N[C@@H](CS)C(=O)N[C@@H](CCCNC(=N)N)C(=O)N[C@@H](CC(=O)O)C(=O)N[C@@H](CC(N)=O)C(=O)N[C@H](C(=O)N[C@@H](CCCNC(=N)N)C(=O)O)[C@@H](C)O` [LIPH4-23s] (H-LNCRDNTR-OH; N-terminus and C-terminus assumed), the “solubility in PBS” value in data set [1] is on record as “soluble in PBS (water soluble)”.

With `C[C@H](NC(=O)[C@@H](NC(=O)[C@H](CC(N)=O)NC(=O)[C@H](Cc1c[nH]cn1)NC(=O)[C@H](CCCNC(=N)N)NC(=O)[C@H](CS)NC(=O)[C@@H](N)CC(N)=O)[C@@H](C)O)C(=O)NCC(=O)O` [LIPH4-NTNBs] (H-NCRHNTAG-OH; N-terminus and C-terminus assumed), in data set [1], the “solubility in PBS” value is “soluble in PBS (water soluble)”.

Take LNCRDNTRPVMSAMTC (LIPH4-23): the anti-HBV activity result in data set [2] is “remarkable anti-HBV activity”. Besides, the “anti-HBV activity (effect to reduce HBV DNA and cccDNA copy numbers)” value in data set [3] is on record as “high anti-HBV activity”.

LNCRDNTRPVMSAMTC [KIgk-LIPH4-23]: the “binding to LIPG in pull-down assay” value in data set [4] is on record as “positive”. Also, the “copy number of HBV-DNA” value in data set [2] (vs control) was “reduced the copy number of HBV-DNA to near zero”.

B1: LIPG (500 aa, MW: 56.8 kDa) (protein)
chain: SPVPFGPEGRLEDKLHKPKATQTEVKPSVRFNLRTSKDPEHEGCYLSVGHSQPLEDCSFNMTAKTFFIIHGWTMSGIFENWLHKLVSALHTREKDANVVVVDWLPLAHQLYTDAVNNTRVVGHSIARMLDWLQEKDDFSLGNVHLIGYSLGAHVAGYAGNFVKGTVGRITGLDPAGPMFEGADIHKRLSPDDADFVDVLHTYTRSFGLSIGIQMPVGHIDIYPNGGDFQPGCGLNDVLGSIAYGTITEVVKCEHERAVHLFVDSLVNQDKPSFAFQCTDSNRFKKGICLSCRKNRCNSIGYNAKKMRNKRNSKMYLKTRAGMPFRVYHYQMKIHVFSYKNMGEIEPTFYVTLYGTNADSQTLPLEIVERIEQNATNTFLVYTEEDLGDLLKIQLTWEGASQSWYNLWKEFRSYLSQPRNPGRELNIRRIRVKSGETQRKLTFCTEDPENTSISPGRELWFRKCRDGWRMKNETSPTVELP
As to B1, in data set [5], the “degradation of a 1203-base HBV L protein RNA by N4BP1 (RNase activity), agarose gel” value is on record as “the degradation of the RNA was suppressed in the presence of LIPG by binding of LIPG to N4BP1”.
